Consider one substance from paper PMC9007350, “Aurintricarboxylic acid is a canonical disruptor of the TAZ-TEAD transcriptional complex” (PLoS ONE, 2022).

For the assay, the target named is T1, TAZ-TEAD complex (human TAZ (23-57) probe, human TEAD4 (217-434)) (Homo sapiens, UniProt Q15561).
T1 construct: made in house
Kind of assay: TAZ-TEAD fluorescence polarization assay. It counts as binding. The conditions noted are these: comparison with ATA, S2 Fig. As to the method: Human YAP (61–100), human TAZ (23–57) and mouse Vgll1 (26–51) peptide probes were used; all the probes had carboxyfluorescein labels. Human TEAD4 (217–434) was used in the assay at a concentration of 350 nM and the peptide probe concentration was 25 nM. Disruptors were titrated at concentrations ranging from 0–150 μM to the probe-TEAD complex, and the mixtures were incubated at 25°C for 20 min. Then, polarization measurements were taken using a Victor3 (PerkinElmer) plate reader.

T1 sequence (Q15561 217-434, one chain of several): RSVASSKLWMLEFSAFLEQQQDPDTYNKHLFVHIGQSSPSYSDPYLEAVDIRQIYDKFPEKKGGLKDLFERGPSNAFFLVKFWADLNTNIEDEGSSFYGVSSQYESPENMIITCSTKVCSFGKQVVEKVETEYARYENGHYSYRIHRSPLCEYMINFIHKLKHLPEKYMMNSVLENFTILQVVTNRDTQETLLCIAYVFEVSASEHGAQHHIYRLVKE

As to verteporfin, the “effect in the TAZ-TEAD FP assay (in words)” value is “did not display an effect”.
